# Measurements reported in patent publication US20140275094A1, “METHOD FOR TREATING PULMONARY ARTERIAL HYPERTENSION IN A PATIENT NOT HAVING IDIOPATHIC PULMONARY FIBROSIS” (GILEAD SCIENCES, INC., priority 2012, published 2014).
# Test: Post-marketing spontaneous and clinical serious adverse event hepatic data (LEAP), 2 years after first approval
# Type: in vivo, human
# From the text: During the 2-year period since ambrisentan was first approved, the vast majority of patient exposure had been in the U.S. through Letairis Education and Access Program (LEAP). As of 14 Jun. 2009, a total of 6,622 patients had enrolled in LEAP and received at least one shipment of ambrisentan. Approximately half of the patients for whom duration of therapy was available received ambrisentan for a period of at least 6 months, resulting in a total of 3,847 patient-years of exposure. Exposure duration is depicted in FIG. 3 showing LEAP patients by exposure duration.
# A total of 120 post-marketing spontaneous reports were identified for the 2-year period (15 Jun. 2007 through 14 Jun. 2009) where 119 reports were received via LEAP in the U.S. and the remaining one was received from Germany (outside of LEAP). As of 31 Mar. 2009, there were […] of exposure to ambrisentan. All reports were actively followed up in accordance with Gilead Drug Safety procedures to obtain all important information needed to assess a potential relationship with ambrisentan therapy, particularly laboratory data, medical history and concurrent medications. All reports included potential alternative causes for the hepatic events which are unrelated to ambrisentan therapy, such as right-sided heart failure due to underlying PAH, other co-morbidities or concurrent medications.
# Of the 120 spontaneous reports, 55 reports were medically-confirmed suspected adverse reaction reports. A total of 28 cases were considered “clinically significant hepatic events” which are defined as (1) ALT and/or AST increases >3×ULN, (2) serum total bilirubin increases >2×ULN, (3) any hepatic event associated with potential signs/symptoms of hepatic disease, or (4) any clinically significant hepatic event term (e.g., liver failure). These cases included 24 reports of serum aminotransferase (ALT/AST) increases >3×ULN; 3 reports of elevated serum total bilirubin>2×ULN; and 1 report of elevated serum aminotransferases with signs and symptoms, but AST and ALT values were not provided. Of these 28 cases, there were 3 reports of both elevated ALT/AST>3×ULN and serum total bilirubin>2×ULN. However, these reports included probable alternate causes of the hepatic events such as sickle cell disease in a patient with baseline serum total bilirubin of ‘7.7’, suspected gall bladder disease in a patient who developed increased serum total bilirubin (5×ULN) and alkaline phosphatase (3.3×ULN) 11 days before an increase in ALT to 3.1×ULN, and documented cardiogenic shock and right-sided heart failure due to PAH.
# There were 7 drug-related serious adverse event (SAE) reports from clinical studies which had evidence of alternative causes of the hepatic events or were poorly documented. Six of the reports were considered clinically significant, including one case where ALT/AST was >3×ULN and serum total bilirubin>2×ULN. However, probable causes of the hepatic events in this case included concurrent right heart failure, diagnosed after the patient admitted missing several doses of ambrisentan and 3-4 days of sildenafil and furosemide and with a baseline serum total bilirubin of 1.7×ULN.
# The estimated post-marketing incidence rate of hepatic events with ambrisentan in the U.S. during the 2-year post-marketing period is 1.8% (119/6622), detected through LEAP. This rate is consistent with the background rate of placebo-treated PAH patients in clinical trials evaluating ERAs which appeared to have an incidence rate of 2%-3% over a 12- to 24-week period.
# [1] = among the 28 clinically significant cases
smiles,measurement,setting,value
"COC(c1ccccc1)(c1ccccc1)[C@H](Oc1nc(C)cc(C)n1)C(=O)O [Ambrisentan, (25)-2-[(4,6-dimethylpyrimidin-2-yl)oxy]-3-methoxy-3,3-diphenylpropanoic acid]","post-marketing spontaneous reports of hepatic events, number",15 Jun. 2007 through 14 Jun. 2009,120
same,estimated post-marketing incidence rate of hepatic events,"U.S., 2-year post-marketing period, LEAP (119/6622)",1.8%
same,"reports of both elevated ALT/AST >3×ULN and serum total bilirubin >2×ULN, number",[1],3
same,"reports of elevated serum total bilirubin >2×ULN, number",[1],3
same,"reports of serum aminotransferase (ALT/AST) increases >3×ULN, number",[1],24
same,"drug-related serious adverse event (SAE) reports from clinical studies, number",hepatic events,7
same,"cases considered clinically significant hepatic events, number",of 55 medically-confirmed suspected adverse reaction reports,28
same,incidence of hepatic events (adverse events and elevated aminotransferase levels),post-marketing data,approximately 2%
